# “Also recorded” adds a separate entry of the source.
# Tests used:
# [1] = biological target: thyroid hormone sulfotransferase activity in pooled human liver cytosol; assay: Inhibition of 3,3′-T2 sulfotransferase activity; conditions: for IC50: read-out: IC50 (nM) (95% CI) for the inhibition of 3,3′-T2S formation, 1 μM 3,3′-T2, 0.25 mg protein/ml pooled human liver cytosol, 50 μM PAPS, 30 min, 37°C; for inhibition of 3,3′-T2 sulfation (result in words): range of concentrations tested 10–1000 nM
# [2] = test system: SULT1A1; conditions: read-out: Km of 3,3′-T2 for SULT1A1; cited from earlier work
# [3] = test system: thyroid hormone sulfotransferase activity in pooled human liver cytosol; assay: 3,3′-T2 sulfation kinetics in pooled human liver cytosol; assay type: biochemical
# [4] = test system: thyroid hormone sulfotransferase activity; assay: as above; assay type: biochemical; conditions: human, pooled human liver cytosol
# [5] = test system: SULT2A1; conditions: read-out: Km of 3,3′-T2 for SULT2A1; cited from earlier work
# [6] = test system: SULT1E1; conditions: read-out: Km of 3,3′-T2 for SULT1E1; cited from earlier work
# [7] = test system: SULT1A3; conditions: read-out: Km of 3,3′-T2 for SULT1A3; cited from earlier work
# [8] = test system: thyroid hormone sulfotransferase activity in pooled human liver cytosol; assay: Mechanism of 3,3′-T2 sulfotransferase inhibition; assay type: biochemical; conditions: 3,3′-T2 0–5000 nM with varying 4-OH BDE 90; Vmax lower, apparent Km unchanged
Compound,IC50 [1],other results
"Oc1c(Br)cc(Br)cc1Br [2,4,6-TBP, 2,4,6-tribromophenol]",8.3 nM,–
"Oc1c(F)cc(F)cc1F [2,4,6-TFP, 2,4,6-trifluorophenol]",4.6 nM,–
"Oc1c(I)cc(I)cc1I [2,4,6-TIP, 2,4,6-triiodophenol]",140 nM,–
"Oc1ccccc1Oc1ccc(Br)cc1 [2′-OH BDE 3, 2′-OH 4-monoBDE]",500 nM,–
"N[C@@H](Cc1ccc(Oc2ccc(O)c(I)c2)c(I)c1)C(=O)O [3,3′-T2, 3,3′-diiodothyronine]",–,"Km [2]: 0.12 µM; 3,3′-T2S formation rate under standard conditions ([3]; 1 μM 3,3′-T2, 30 min incubation, 0.25 mg protein/ml): 70–80 pmol/min.mg protein; Vmax for 3,3′-T2 sulfate formation ([3]; pooled human liver cytosol 0.25 mg protein/ml, 30 min): 153 ± 6.6 pmol/min.mg protein; Km ([3]; read-out: apparent Km for the 3,3′-T2 sulfation reaction, pooled human liver cytosol 0.25 mg protein/ml, 30 min): 1.07 ± 0.12 µM; microsomal CLint [4]: 145 µL/min/mg; Km [5]: 3 µM; Km [6]: 3.5 to 9.7 µM; Km [7]: 31 to 35 µM"
"Oc1c(Br)ccc(Oc2ccc(Br)cc2Br)c1Br [3-OH BDE 47, 3-OH 2,2′,4,4′-tetraBDE]",60 nM,–
"Oc1cccc(Oc2ccc(Br)cc2Br)c1 [3′-OH BDE 7, 3′-OH 2,4-diBDE]",410 nM,–
"Oc1cc(Oc2ccc(Br)cc2Br)ccc1Br [3′-OH BDE 28, 3′-OH 2,4,4′-triBDE]",190 nM,–
"Oc1c(Br)cc(Br)c(Oc2cc(Br)c(Br)cc2Br)c1Br [3′-OH BDE 154, 3-OH 2,2′,4,4′,5,6′-hexaBDE]",80 nM,–
"Oc1c(Br)cc(Oc2ccc(Br)cc2Br)c(Br)c1Br [4-OH BDE 90, 4-OH 2,2′,3,4′,5-pentaBDE]",24 nM,inhibition mechanism [8]: non-competitive
"Oc1cc(Br)c(Oc2ccc(Br)cc2Br)cc1Br [4′-OH BDE 49, 4′-OH 2,2′,4,5′-tetraBDE]",650 nM,–
"Oc1cc(Br)c(Oc2cc(Br)c(Br)cc2Br)cc1Br [4′-OH BDE 101, 4′-OH 2,2′,4,5, 5′-pentaBDE]",640 nM,–
"Oc1c(Br)c(Br)c(Oc2c(Br)cc(Br)c(Br)c2Br)c(Br)c1Br [4′-OH BDE 201, 4′-OH 2,2′,3,3′,4,5′,6,6′-octaBDE]",510 nM,–
"Oc1cc(Oc2ccc(Br)cc2Br)c(Br)cc1Br [5-OH BDE 47, 5-OH 2,2′,4,4′-tetraBDE]",400 nM,–
"Oc1cc(Oc2cc(Br)c(Br)cc2Br)c(Br)cc1Br [5′-OH BDE 99, 5′-OH 2,2′,4,4′,5-pentaBDE]",520 nM,–
"Oc1cc(Br)cc(Br)c1Oc1ccc(Br)cc1Br [6-OH BDE 47, 6-OH 2,2′,4,4′-tetraBDE]",130 nM,–
"Oc1cc(Br)cc(Br)c1Oc1cc(Br)c(Br)cc1Br [6′-OH BDE 99, 6′-OH 2,2′,4,4′,5-pentaBDE]",310 nM,–
"Brc1ccc(Oc2ccc(Br)cc2Br)c(Br)c1 [BDE 47, 2,2′,4,4′-tetrabromodiphenyl ether]",–,"inhibition of 3,3′-T2 sulfation (result in words) [1]: did not inhibit 3,3′-T2 sulfation; also recorded: did not show inhibition; inhibition of 3,3′-T2 sulfation (result in words) ([1]; listed as BDE-47): did not show sulfotransferase inhibition"
"Oc1ccc(C(c2ccc(O)cc2)(C(F)(F)F)C(F)(F)F)cc1 [BPA-AF, 4,4′-(hexafluoroisopropylidene)diphenol]",8590 nM,–
"CC(C)(c1cc(Br)c(O)c(Br)c1)c1cc(Br)c(O)c(Br)c1 [TBBPA, tetrabromobisphenol A]",460 nM,–
"CC(C)(c1cc(Cl)c(O)c(Cl)c1)c1cc(Cl)c(O)c(Cl)c1 [TCBPA, 3,3′,5,5′-tetrachlorobisphenol A]",340 nM,–
"CC(C)(c1cc(I)c(O)c(I)c1)c1cc(I)c(O)c(I)c1 [TIBPA, 3,3′,5,5′-tetraiodobisphenol A]",13200 nM,–
"Oc1cc(Cl)ccc1Oc1ccc(Cl)cc1Cl [Triclosan, triclosan]",1410 nM,"fold less potent than 3′-OH BDE 28 ([1]; 3,3′-T2 sulfotransferase inhibition potency): approximately 7 fold"

# Source: publication PMC3836566 (Chemical research in toxicology, 2013)
